Assay results as given in patent publication US20250163104A1, “MACROCYCLIC IMMUNOMODULATORS” (priority 2021, published 2025).
Where a SMILES comes first, the peptide text is derived from it. Bridges are numbered along the chain shown (N, C = ends). [ ]: non-standard residue; d: D form. The star is where a group is joined. ξ: configuration not given here. Bip = N[C@@H](Cc1ccc(-c2ccccc2)cc1)C(=O)O; Phe(3-Me) = Cc1cccc(C[C@H](N)C(=O)O)c1; 4Pal = N[C@@H](Cc1ccncc1)C(=O)O; Cha = N[C@@H](CC1CCCCC1)C(=O)O; Carboxymethyl = O=C(O)C*; Orn = NCCC[C@H](N)C(=O)O; Dab = NCC[C@H](N)C(=O)O; Dap = NC[C@H](N)C(=O)O; ξPra = C#CCC(N)C(=O)O

These molecules were tested against T1, human PD-1 / PD-L1-Ig binding on Jurkat cell line over-expressing human PD-1 (Jurkat-PD-1) (Homo sapiens, UniProt Q15116) (assay: Jurkat-PD-1 Cell Binding High-Content Screening Assay (CBA)). Conditions: Jurkat-PD-1 cells, PE-labeled PD-L1-Ig 20 nM final; read-out: Jurkat HPD1_PDL1 IC50.
T1 construct: expressed in transfected cells; host or cells: Jurkat
Type: cell-based
Outline: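 Binding of fluorescent PD-L1-Ig (phycoerythrin linked via the Ig tag, 20 nM final) to PD-1-overexpressing Jurkat cells was imaged after a 2 h, 37° C compound pretreatment and 1 hour ligand incubation.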

T1 sequence (Q15116 25-288): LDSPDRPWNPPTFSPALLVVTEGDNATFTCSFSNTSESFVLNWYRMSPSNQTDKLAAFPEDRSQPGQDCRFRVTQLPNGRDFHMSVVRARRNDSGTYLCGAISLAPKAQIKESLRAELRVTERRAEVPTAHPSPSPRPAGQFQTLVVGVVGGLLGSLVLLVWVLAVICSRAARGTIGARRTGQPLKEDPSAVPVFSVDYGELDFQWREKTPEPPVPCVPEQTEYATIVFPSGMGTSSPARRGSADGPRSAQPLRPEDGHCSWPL

SMILES | IC50 [nM]
CC(C)C[C@H]1NC(=O)[C@H](CCCN)NC(=O)[C@H](C(C)C)NC(=O)[C@H](Cc2ccc(-c3ccccc3)cc2)NC(=O)[C@H](C(C)C)NC(=O)[C@H](Cc2c[nH]c3ccccc23)NC(=O)[C@H](CC(=O)O)NC(=O)[C@H](Cc2ccc(OCC(=O)O)cc2)NC(=O)[C@H](Cc2ccc(OCC(=O)O)cc2)NC(=O)CSC[C@@H](C(=O)N[C@@H](C)C(N)=O)NC(=O)[C@H](Cc2cnc[nH]2)NC(=O)[C@H](C(C)C)NC(=O)[C@H](CC2CCCCC2)NC(=O)[C@H](CCN)NC1=O [Compound 1752] ({CH2CO}-Y(Carboxymethyl)Y(Carboxymethyl)DWV[Bip]V[Orn][dL][Dab][Cha]VHCA-NH2; thioether N-14) | 6.7
Cc1cccc(C[C@@H]2NC(=O)[C@H](CC(=O)O)NC(=O)[C@H](Cc3ccc(OCC(=O)O)cc3)NC(=O)[C@H](CN)NC(=O)CSC[C@@H](C(=O)N[C@@H](C)C(N)=O)NC(=O)[C@H](CN)NC(=O)[C@H](C(C)C)NC(=O)[C@H](CC3CCCCC3)NC(=O)[C@H](CCN)NC(=O)[C@@H](CC(C)C)NC(=O)[C@H](CCCN)NC(=O)[C@H](C(C)C)NC(=O)[C@H](Cc3ccc(-c4ccccc4)cc3)NC(=O)[C@H](C(C)C)NC2=O)c1 [Compound 1753] ({CH2CO}-[Dap]Y(Carboxymethyl)D[Phe(3-Me)]V[Bip]V[Orn][dL][Dab][Cha]V[Dap]CA-NH2; thioether N-14) | 5.1
Cc1cccc(C[C@@H]2NC(=O)[C@H](CC(=O)O)NC(=O)[C@H](Cc3ccc(OCC(=O)O)cc3)NC(=O)[C@H](CN)NC(=O)CSC[C@@H](C(=O)N[C@@H](C)C(N)=O)NC(=O)[C@H](CCCN)NC(=O)[C@H](C(C)C)NC(=O)[C@H](CC3CCCCC3)NC(=O)[C@H](CCN)NC(=O)[C@@H](CC(C)C)NC(=O)[C@H](CCCN)NC(=O)[C@H](C(C)C)NC(=O)[C@H](Cc3ccc(-c4ccccc4)cc3)NC(=O)[C@H](C(C)C)NC2=O)c1 [Compound 1754] ({CH2CO}-[Dap]Y(Carboxymethyl)D[Phe(3-Me)]V[Bip]V[Orn][dL][Dab][Cha]V[Orn]CA-NH2; thioether N-14) | 5.5
Cc1cccc(C[C@@H]2NC(=O)[C@H](CC(=O)O)NC(=O)[C@H](Cc3ccc(OCC(=O)O)cc3)NC(=O)[C@H](CN)NC(=O)CSC[C@@H](C(=O)N[C@@H](C)C(N)=O)NC(=O)[C@H](CCCNC(=N)N)NC(=O)[C@H](C(C)C)NC(=O)[C@H](CC3CCCCC3)NC(=O)[C@H](CCN)NC(=O)[C@@H](CC(C)C)NC(=O)[C@H](CCCN)NC(=O)[C@H](C(C)C)NC(=O)[C@H](Cc3ccc(-c4ccccc4)cc3)NC(=O)[C@H](C(C)C)NC2=O)c1 [Compound 1756] ({CH2CO}-[Dap]Y(Carboxymethyl)D[Phe(3-Me)]V[Bip]V[Orn][dL][Dab][Cha]VRCA-NH2; thioether N-14) | 5.5
C#CCC(NC(=O)[C@H](CCN)NC(=O)[C@@H]1CSCC(=O)N[C@@H](Cc2ccncc2)C(=O)N[C@@H](Cc2ccc(OCC(=O)O)cc2)C(=O)N[C@@H](CC(=O)O)C(=O)N[C@@H](Cc2c[nH]c3ccccc23)C(=O)N[C@@H](C(C)C)C(=O)N[C@@H](Cc2ccc(-c3ccccc3)cc2)C(=O)N[C@@H]([C@@H](C)CC)C(=O)N[C@@H](CCCN)C(=O)N[C@H](CC(C)C)C(=O)N[C@@H](CCN)C(=O)N[C@@H](CC(C)C)C(=O)N[C@@H](C(C)C)C(=O)N[C@@H]([C@@H](C)O)C(=O)N1)C(N)=O (stereo partly drawn) [Compound 1759] ({CH2CO}-[4Pal]Y(Carboxymethyl)DWV[Bip]I[Orn][dL][Dab]LVTC[Dab][ξPra]-NH2; thioether N-14) | 7.2
C#CCC(NC(=O)[C@H](CCCN)NC(=O)[C@@H]1CSCC(=O)N[C@@H](Cc2ccncc2)C(=O)N[C@@H](Cc2ccc(OCC(=O)O)cc2)C(=O)N[C@@H](CC(=O)O)C(=O)N[C@@H](Cc2c[nH]c3ccccc23)C(=O)N[C@@H](C(C)C)C(=O)N[C@@H](Cc2ccc(-c3ccccc3)cc2)C(=O)N[C@@H]([C@@H](C)CC)C(=O)N[C@@H](CCCN)C(=O)N[C@H](CC(C)C)C(=O)N[C@@H](CCN)C(=O)N[C@@H](CC(C)C)C(=O)N[C@@H](C(C)C)C(=O)N[C@@H]([C@@H](C)O)C(=O)N1)C(N)=O (stereo partly drawn) [Compound 1760] ({CH2CO}-[4Pal]Y(Carboxymethyl)DWV[Bip]I[Orn][dL][Dab]LVTC[Orn][ξPra]-NH2; thioether N-14) | 39.6
C#CCC(NC(=O)[C@H](Cc1cnc[nH]1)NC(=O)[C@@H]1CSCC(=O)N[C@@H](Cc2ccncc2)C(=O)N[C@@H](Cc2ccc(OCC(=O)O)cc2)C(=O)N[C@@H](CC(=O)O)C(=O)N[C@@H](Cc2c[nH]c3ccccc23)C(=O)N[C@@H](C(C)C)C(=O)N[C@@H](Cc2ccc(-c3ccccc3)cc2)C(=O)N[C@@H]([C@@H](C)CC)C(=O)N[C@@H](CCCN)C(=O)N[C@H](CC(C)C)C(=O)N[C@@H](CCN)C(=O)N[C@@H](CC(C)C)C(=O)N[C@@H](C(C)C)C(=O)N[C@@H]([C@@H](C)O)C(=O)N1)C(N)=O (stereo partly drawn) [Compound 1763] ({CH2CO}-[4Pal]Y(Carboxymethyl)DWV[Bip]I[Orn][dL][Dab]LVTCH[ξPra]-NH2; thioether N-14) | 24

Continued by falling IC50, values first:

IC50 [nM] | SMILES
33.1 | C#CCC(NC(=O)[C@H](CN)NC(=O)[C@@H]1CSCC(=O)N[C@@H](Cc2ccncc2)C(=O)N[C@@H](Cc2ccc(OCC(=O)O)cc2)C(=O)N[C@@H](CC(=O)O)C(=O)N[C@@H](Cc2c[nH]c3ccccc23)C(=O)N[C@@H](C(C)C)C(=O)N[C@@H](Cc2ccc(-c3ccccc3)cc2)C(=O)N[C@@H]([C@@H](C)CC)C(=O)N[C@@H](CCCN)C(=O)N[C@H](CC(C)C)C(=O)N[C@@H](CCN)C(=O)N[C@@H](CC(C)C)C(=O)N[C@@H](C(C)C)C(=O)N[C@@H]([C@@H](C)O)C(=O)N1)C(N)=O (stereo partly drawn) [Compound 1764] ({CH2CO}-[4Pal]Y(Carboxymethyl)DWV[Bip]I[Orn][dL][Dab]LVTC[Dap][ξPra]-NH2; thioether N-14)
21.4 | C#CCC(NC(=O)[C@H](CCN)NC(=O)[C@@H]1CSCC(=O)N[C@@H](Cc2ccncc2)C(=O)N[C@@H](Cc2ccc(OCC(=O)O)cc2)C(=O)N[C@@H](CC(=O)O)C(=O)N[C@@H](Cc2c[nH]c3ccccc23)C(=O)N[C@@H](C(C)C)C(=O)N[C@@H](Cc2ccc(-c3ccccc3)cc2)C(=O)N[C@@H]([C@@H](C)CC)C(=O)N[C@@H](CCCN)C(=O)N[C@H](CC(C)C)C(=O)N[C@@H](CCN)C(=O)N[C@@H](CC(C)C)C(=O)N[C@@H](C(C)C)C(=O)N[C@@H]([C@@H](C)O)C(=O)N1)C(N)=O (stereo partly drawn) [Compound 1765] ({CH2CO}-[4Pal]Y(Carboxymethyl)DWV[Bip]I[Orn][dL][Dab]LVTC[Dab][ξPra]-NH2; thioether N-14)
20.5 | C#CCC(NC(=O)[C@H](CCCNC(=N)N)NC(=O)[C@@H]1CSCC(=O)N[C@@H](Cc2ccncc2)C(=O)N[C@@H](Cc2ccc(OCC(=O)O)cc2)C(=O)N[C@@H](CC(=O)O)C(=O)N[C@@H](Cc2c[nH]c3ccccc23)C(=O)N[C@@H](C(C)C)C(=O)N[C@@H](Cc2ccc(-c3ccccc3)cc2)C(=O)N[C@@H]([C@@H](C)CC)C(=O)N[C@@H](CCCN)C(=O)N[C@H](CC(C)C)C(=O)N[C@@H](CCN)C(=O)N[C@@H](CC(C)C)C(=O)N[C@@H](C(C)C)C(=O)N[C@@H]([C@@H](C)O)C(=O)N1)C(N)=O (stereo partly drawn) [Compound 1762] ({CH2CO}-[4Pal]Y(Carboxymethyl)DWV[Bip]I[Orn][dL][Dab]LVTCR[ξPra]-NH2; thioether N-14)
13.9 | C#CCC(NC(=O)[C@H](CCCCN)NC(=O)[C@@H]1CSCC(=O)N[C@@H](Cc2ccncc2)C(=O)N[C@@H](Cc2ccc(OCC(=O)O)cc2)C(=O)N[C@@H](CC(=O)O)C(=O)N[C@@H](Cc2c[nH]c3ccccc23)C(=O)N[C@@H](C(C)C)C(=O)N[C@@H](Cc2ccc(-c3ccccc3)cc2)C(=O)N[C@@H]([C@@H](C)CC)C(=O)N[C@@H](CCCN)C(=O)N[C@H](CC(C)C)C(=O)N[C@@H](CCN)C(=O)N[C@@H](CC(C)C)C(=O)N[C@@H](C(C)C)C(=O)N[C@@H]([C@@H](C)O)C(=O)N1)C(N)=O (stereo partly drawn) [Compound 1761] ({CH2CO}-[4Pal]Y(Carboxymethyl)DWV[Bip]I[Orn][dL][Dab]LVTCK[ξPra]-NH2; thioether N-14)
13.2 | Cc1cccc(C[C@@H]2NC(=O)[C@H](CC(=O)O)NC(=O)[C@H](Cc3ccc(OCC(=O)O)cc3)NC(=O)[C@H](CN)NC(=O)CSC[C@@H](C(=O)N[C@@H](C)C(N)=O)NC(=O)[C@H](Cc3cnc[nH]3)NC(=O)[C@H](C(C)C)NC(=O)[C@H](CC3CCCCC3)NC(=O)[C@H](CCN)NC(=O)[C@@H](CC(C)C)NC(=O)[C@H](CCCN)NC(=O)[C@H](C(C)C)NC(=O)[C@H](Cc3ccc(-c4ccccc4)cc3)NC(=O)[C@H](C(C)C)NC2=O)c1 [Compound 1757] ({CH2CO}-[Dap]Y(Carboxymethyl)D[Phe(3-Me)]V[Bip]V[Orn][dL][Dab][Cha]VHCA-NH2; thioether N-14)
8.4 | Cc1cccc(C[C@@H]2NC(=O)[C@H](CC(=O)O)NC(=O)[C@H](Cc3ccc(OCC(=O)O)cc3)NC(=O)[C@H](CN)NC(=O)CSC[C@@H](C(=O)N[C@@H](C)C(N)=O)NC(=O)[C@H](CCCCN)NC(=O)[C@H](C(C)C)NC(=O)[C@H](CC3CCCCC3)NC(=O)[C@H](CCN)NC(=O)[C@@H](CC(C)C)NC(=O)[C@H](CCCN)NC(=O)[C@H](C(C)C)NC(=O)[C@H](Cc3ccc(-c4ccccc4)cc3)NC(=O)[C@H](C(C)C)NC2=O)c1 [Compound 1755] ({CH2CO}-[Dap]Y(Carboxymethyl)D[Phe(3-Me)]V[Bip]V[Orn][dL][Dab][Cha]VKCA-NH2; thioether N-14)
7.5 | C#CCC(NC(=O)[C@H](CN)NC(=O)[C@@H]1CSCC(=O)N[C@@H](Cc2ccncc2)C(=O)N[C@@H](Cc2ccc(OCC(=O)O)cc2)C(=O)N[C@@H](CC(=O)O)C(=O)N[C@@H](Cc2c[nH]c3ccccc23)C(=O)N[C@@H](C(C)C)C(=O)N[C@@H](Cc2ccc(-c3ccccc3)cc2)C(=O)N[C@@H]([C@@H](C)CC)C(=O)N[C@@H](CCCN)C(=O)N[C@H](CC(C)C)C(=O)N[C@@H](CCN)C(=O)N[C@@H](CC(C)C)C(=O)N[C@@H](C(C)C)C(=O)N[C@@H]([C@@H](C)O)C(=O)N1)C(N)=O (stereo partly drawn) [Compound 1758] ({CH2CO}-[4Pal]Y(Carboxymethyl)DWV[Bip]I[Orn][dL][Dab]LVTC[Dap][ξPra]-NH2; thioether N-14)
